Laboratory results published in patent US9309242B2, “Substituted pyrido[2,3-b]pyrazines as FGFR kinase inhibitors” (priority 2011, dated 2016).
Like-named read-outs stand apart in the source and are kept apart here.

Key:
[1] = biological target: Ba/F3-FGFR4-transfected cells (Homo sapiens, UniProt P22455); experiment: Ba/F3-FGFR4 cellular proliferation assay, Alamar Blue; type: cell-based
Description: Ba/F3-FGFR4 (Cellular Proliferation Assay)
(§1) In a 384 well plate, 100 n1 of compound dilution in DMSO was sprayed before adding 50 μl cell culture medium (phenol red free RPMI-1640, 10% FBS, 2 mM L-Glutamine and 50 μg/ml Gentamycin) containing 20000 cells per well of Ba/F3-FGFR4-transfected cells. Cells were put in an incubator at 37° C. and 5% CO2. After 24 hours, 10 μl of Alamar Blue solution (0.5 mM K3Fe(CN)6, 0.5 mM K4Fe(CN)6, 0.15 mM Resazurin and 100 mM Phosphate Buffer) was added to the wells, incubated for 4 hours at 37° C. and 5% CO2 before RFU's (Relative Fluorescence Units) (ex. 540 nm., em. 590 nm.) were measured in a fluororescence plate reader.

[2] = biological target: FGFR3 (h) (Homo sapiens, UniProt P22607); experiment: FGFR3 (enzymatic assay), TR-FRET; type: biochemical; conditions: average values if tested multiple times, read-out: FGFR 3 pIC50 (converted)
Source text: Time-Resolved Fluorescence Resonance Energy Transfer (TR-FRET) signal (ex340 nm.

[3] = biological target: KDR (h) (Homo sapiens, UniProt P35968); experiment: KDR (VEGFR2) (enzymatic assay), TR-FRET; type: biochemical; conditions: average values if tested multiple times, read-out: VEGFR 2 (KDR) pIC50 (converted)
Description: KDR (VEGFR2) (Enzymatic Assay)
In a final reaction volume of 30 μL, KDR (h) (150 ng/ml) was incubated with 50 mM HEPES pH 7.5, 6 mM MnCl2, 1 mM DTT, 0.1 mM Na3VO4, 0.01% Triton-X-100, 500 nM Btn-Flt3 and 3 μM ATP in the presence of compound (1% DMSO final). After incubation for 120 minutes at room temperature the reaction was stopped with 2.27 nM EU-anti P-Tyr, 7 mM EDTA, 31.25 nM SA-XL-665 and 0.02% BSA which was present for 60 minutes at room temperature. Time-Resolved Fluorescence Resonance Energy Transfer (TR-FRET) signal (ex340 nm. Em 620 nm, em 655 nm) was measured afterwards and results are expressed in RFU (Relative Fluorescence Units).

[4] = system: Ba/F3-FGFR1-transfected cells; experiment: Ba/F3-FGFR1 (plus IL3) cellular proliferation assay, counterscreen with 10 ng/ml murine IL3; type: cell-based; conditions: read-out: BAF3-FGFR1 (PLUS IL3) pIC50 (converted)
Description: (§2) Ba/F3-FGFR1 (Minus IL3 or Plus IL3) (Cellular Proliferation Assay)
as §1, with “nl” for “n1”, “Ba/F3-FGFR1-transfected” for “Ba/F3-FGFR4-transfected”
(§3) As a counterscreen the same experiment was performed in the presence of 10 ng/ml murine IL3.

[5] = biological target: FGFR1 (h) (Homo sapiens, UniProt P11362); experiment: FGFR1 (enzymatic assay), TR-FRET; type: biochemical; conditions: average values if tested multiple times, read-out: FGFR 1 pIC50 (converted)
[6] = biological target: FGFR4 (h) (Homo sapiens, UniProt P22455); experiment: FGFR4 (enzymatic assay), TR-FRET; type: biochemical; conditions: FGFR 4 pIC50, enzymatic assay; average values if tested multiple times
[7] = biological target: FGFR2 (h) (Homo sapiens, UniProt P21802); experiment: FGFR2 (enzymatic assay), TR-FRET; type: biochemical; conditions: average values if tested multiple times
Chain of FGFR2 (h) (P21802 22-821): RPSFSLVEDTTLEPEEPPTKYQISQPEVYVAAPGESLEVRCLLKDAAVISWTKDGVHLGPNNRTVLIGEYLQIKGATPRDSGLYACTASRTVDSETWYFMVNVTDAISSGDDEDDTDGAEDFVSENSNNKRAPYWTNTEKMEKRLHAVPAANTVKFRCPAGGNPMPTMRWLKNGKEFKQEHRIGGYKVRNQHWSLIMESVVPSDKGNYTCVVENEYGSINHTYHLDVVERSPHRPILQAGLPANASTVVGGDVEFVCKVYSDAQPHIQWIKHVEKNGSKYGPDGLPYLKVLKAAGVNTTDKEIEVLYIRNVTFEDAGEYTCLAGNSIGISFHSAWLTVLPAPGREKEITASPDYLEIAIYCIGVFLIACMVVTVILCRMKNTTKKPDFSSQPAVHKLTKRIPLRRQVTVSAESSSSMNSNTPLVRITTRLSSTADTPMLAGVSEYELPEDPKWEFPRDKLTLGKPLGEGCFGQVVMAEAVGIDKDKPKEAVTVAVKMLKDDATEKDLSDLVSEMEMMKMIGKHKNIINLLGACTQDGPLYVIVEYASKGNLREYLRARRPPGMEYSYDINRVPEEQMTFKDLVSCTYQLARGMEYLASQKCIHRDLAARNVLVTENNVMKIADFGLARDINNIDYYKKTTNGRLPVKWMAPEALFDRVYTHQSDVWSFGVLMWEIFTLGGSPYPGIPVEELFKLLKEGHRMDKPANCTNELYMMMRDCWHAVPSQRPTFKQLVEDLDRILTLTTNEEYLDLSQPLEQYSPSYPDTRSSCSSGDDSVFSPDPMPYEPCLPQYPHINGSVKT
Description: In a final reaction volume of 30 μL, FGFR2 (h) (150 ng/ml) was incubated with 50 mM HEPES pH 7.5, 6 mM MnCl2, 1 mM DTT, 0.1 mM Na3VO4, 0.01% Triton-X-100, 500 nM Btn-Flt3 and 0.4 μM ATP in the presence of compound (1% DMSO final).

[8] = biological target: T1, Ba/F3-FGFR1-transfected cells (Homo sapiens, UniProt P11362); experiment: Ba/F3-FGFR1 (minus IL3) cellular proliferation assay, Alamar Blue; type: cell-based
T1 construct: BAF3-FGFR1 (MIN IL3) pIC50; other: minus IL3
T1 sequence (P11362 whole entry, change not shown): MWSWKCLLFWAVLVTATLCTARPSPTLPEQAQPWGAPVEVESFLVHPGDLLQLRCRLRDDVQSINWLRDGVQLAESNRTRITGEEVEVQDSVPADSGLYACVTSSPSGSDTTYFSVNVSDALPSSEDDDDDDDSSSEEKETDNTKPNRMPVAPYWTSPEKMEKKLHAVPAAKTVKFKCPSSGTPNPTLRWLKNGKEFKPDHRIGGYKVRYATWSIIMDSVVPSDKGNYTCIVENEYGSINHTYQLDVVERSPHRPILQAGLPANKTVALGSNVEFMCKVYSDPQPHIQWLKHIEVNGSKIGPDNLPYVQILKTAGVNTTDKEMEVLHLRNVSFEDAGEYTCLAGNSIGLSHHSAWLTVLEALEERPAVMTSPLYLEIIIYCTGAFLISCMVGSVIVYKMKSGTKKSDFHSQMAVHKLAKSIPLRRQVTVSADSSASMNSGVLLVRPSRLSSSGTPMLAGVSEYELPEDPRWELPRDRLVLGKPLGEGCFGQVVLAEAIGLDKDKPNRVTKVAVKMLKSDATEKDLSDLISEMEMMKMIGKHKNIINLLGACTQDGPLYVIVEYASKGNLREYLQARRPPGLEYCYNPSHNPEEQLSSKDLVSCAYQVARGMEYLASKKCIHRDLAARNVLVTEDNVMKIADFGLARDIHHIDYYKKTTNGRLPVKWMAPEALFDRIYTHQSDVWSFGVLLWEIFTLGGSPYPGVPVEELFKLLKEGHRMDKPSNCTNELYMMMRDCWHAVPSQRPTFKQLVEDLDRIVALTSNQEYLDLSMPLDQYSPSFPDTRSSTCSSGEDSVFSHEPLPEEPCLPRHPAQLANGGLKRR
Description: as §2
as §1, with “nl” for “n1”, “Ba/F3-FGFR1-transfected” for “Ba/F3-FGFR4-transfected”

[9] = biological target: T2, Ba/F3-FGFR3-transfected cells (Homo sapiens, UniProt P22607); experiment: Ba/F3-FGFR3 (minus IL3) cellular proliferation assay, Alamar Blue; type: cell-based
T2 construct: BAF3-FGFR3 (MIN IL3) pIC50; other: minus IL3
T2 sequence (P22607 whole entry, change not shown): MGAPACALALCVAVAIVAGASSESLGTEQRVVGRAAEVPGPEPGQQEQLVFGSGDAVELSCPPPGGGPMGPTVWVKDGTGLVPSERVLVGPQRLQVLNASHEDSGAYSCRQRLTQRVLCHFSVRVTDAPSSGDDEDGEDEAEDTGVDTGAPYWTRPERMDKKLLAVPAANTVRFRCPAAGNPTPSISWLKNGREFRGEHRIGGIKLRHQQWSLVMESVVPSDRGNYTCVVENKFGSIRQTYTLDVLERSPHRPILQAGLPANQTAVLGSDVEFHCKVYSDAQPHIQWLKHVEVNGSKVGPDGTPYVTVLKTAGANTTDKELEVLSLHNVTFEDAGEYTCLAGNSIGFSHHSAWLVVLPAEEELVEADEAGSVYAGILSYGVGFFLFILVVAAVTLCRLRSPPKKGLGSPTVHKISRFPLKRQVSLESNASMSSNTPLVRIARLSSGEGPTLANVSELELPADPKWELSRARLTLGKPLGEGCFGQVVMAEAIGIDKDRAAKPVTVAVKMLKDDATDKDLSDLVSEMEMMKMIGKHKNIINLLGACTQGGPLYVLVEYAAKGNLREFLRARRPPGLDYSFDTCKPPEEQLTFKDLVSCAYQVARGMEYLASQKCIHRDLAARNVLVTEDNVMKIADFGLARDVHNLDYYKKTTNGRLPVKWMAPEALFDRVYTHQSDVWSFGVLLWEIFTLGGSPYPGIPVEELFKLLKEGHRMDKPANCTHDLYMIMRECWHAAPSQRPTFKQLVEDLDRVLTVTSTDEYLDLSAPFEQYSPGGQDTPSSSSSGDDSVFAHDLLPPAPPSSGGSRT
Description: (§4) Ba/F3-FGFR3 (Minus IL3 or Plus IL3) (Cellular Proliferation Assay)
as §1, with “nl” for “n1”, “Ba/F3-FGFR3-transfected” for “Ba/F3-FGFR4-transfected”, “reader. […]” for “reader.”

[10] = system: Ba/F3-FGFR3-transfected cells; experiment: Ba/F3-FGFR3 (plus IL3) cellular proliferation assay, counterscreen with 10 ng/ml murine IL3; type: cell-based; conditions: read-out: BAF3-FGFR3 (PLUS IL3) pIC50 (converted)
Description: as §4
as §1, with “nl” for “n1”, “Ba/F3-FGFR3-transfected” for “Ba/F3-FGFR4-transfected”
as §3

[11] = biological target: T3, Ba/F3-KDR-transfected cells (Homo sapiens, UniProt P35968); experiment: Ba/F3-KDR (minus IL3) cellular proliferation assay, Alamar Blue; type: cell-based
T3 construct: BAF3-KDR (MIN IL3) pIC50; other: minus IL3
T3 sequence (P35968 whole entry, change not shown): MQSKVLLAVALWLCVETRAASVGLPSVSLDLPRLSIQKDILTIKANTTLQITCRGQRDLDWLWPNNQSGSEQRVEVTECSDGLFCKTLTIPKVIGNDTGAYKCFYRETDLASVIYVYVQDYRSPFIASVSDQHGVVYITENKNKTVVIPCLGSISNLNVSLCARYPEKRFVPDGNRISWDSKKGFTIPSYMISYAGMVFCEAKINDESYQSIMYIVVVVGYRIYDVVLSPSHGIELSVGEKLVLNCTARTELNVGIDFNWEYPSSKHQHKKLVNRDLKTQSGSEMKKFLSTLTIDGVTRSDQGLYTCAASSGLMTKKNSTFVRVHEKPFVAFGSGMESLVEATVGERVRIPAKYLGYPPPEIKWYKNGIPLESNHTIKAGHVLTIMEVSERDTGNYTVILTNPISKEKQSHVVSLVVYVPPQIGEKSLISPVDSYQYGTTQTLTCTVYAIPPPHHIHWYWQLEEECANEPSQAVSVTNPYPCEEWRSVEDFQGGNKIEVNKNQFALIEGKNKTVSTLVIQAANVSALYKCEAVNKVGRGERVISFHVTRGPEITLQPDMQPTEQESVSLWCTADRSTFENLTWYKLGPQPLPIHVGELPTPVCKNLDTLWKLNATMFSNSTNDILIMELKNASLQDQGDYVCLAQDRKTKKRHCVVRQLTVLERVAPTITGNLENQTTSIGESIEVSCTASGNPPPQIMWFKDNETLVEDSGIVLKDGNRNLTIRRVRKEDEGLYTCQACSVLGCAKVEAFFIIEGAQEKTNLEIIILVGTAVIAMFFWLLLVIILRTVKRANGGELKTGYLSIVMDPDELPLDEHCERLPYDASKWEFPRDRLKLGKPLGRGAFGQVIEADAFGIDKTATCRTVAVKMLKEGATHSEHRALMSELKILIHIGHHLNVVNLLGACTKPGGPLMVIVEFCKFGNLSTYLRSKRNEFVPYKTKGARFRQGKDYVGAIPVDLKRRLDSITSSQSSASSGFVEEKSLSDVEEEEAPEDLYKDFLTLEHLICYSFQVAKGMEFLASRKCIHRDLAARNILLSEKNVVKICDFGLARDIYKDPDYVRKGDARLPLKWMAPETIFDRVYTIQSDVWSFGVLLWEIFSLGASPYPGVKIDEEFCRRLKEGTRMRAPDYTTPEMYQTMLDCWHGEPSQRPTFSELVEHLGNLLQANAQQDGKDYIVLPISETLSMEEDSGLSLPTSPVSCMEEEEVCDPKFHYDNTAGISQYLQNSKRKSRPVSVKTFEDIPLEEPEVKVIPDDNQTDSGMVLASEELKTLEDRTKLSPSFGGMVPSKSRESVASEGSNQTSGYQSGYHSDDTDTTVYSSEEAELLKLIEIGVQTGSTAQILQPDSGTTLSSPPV
Description: Ba/F3-KDR (Minus IL3 or Plus IL3) (Cellular Proliferation Assay)
as §1, with “Ba/F3-KDR-transfected” for “Ba/F3-FGFR4-transfected”, “reader. […]” for “reader.”

[12] = enzymatic assay, read-out: FGFR 2 pIC50 (converted)
[13] = plus IL3 (10 ng/ml murine IL3, counterscreen)

Chain of Ba/F3-FGFR4-transfected cells (P22455 whole entry, change not shown): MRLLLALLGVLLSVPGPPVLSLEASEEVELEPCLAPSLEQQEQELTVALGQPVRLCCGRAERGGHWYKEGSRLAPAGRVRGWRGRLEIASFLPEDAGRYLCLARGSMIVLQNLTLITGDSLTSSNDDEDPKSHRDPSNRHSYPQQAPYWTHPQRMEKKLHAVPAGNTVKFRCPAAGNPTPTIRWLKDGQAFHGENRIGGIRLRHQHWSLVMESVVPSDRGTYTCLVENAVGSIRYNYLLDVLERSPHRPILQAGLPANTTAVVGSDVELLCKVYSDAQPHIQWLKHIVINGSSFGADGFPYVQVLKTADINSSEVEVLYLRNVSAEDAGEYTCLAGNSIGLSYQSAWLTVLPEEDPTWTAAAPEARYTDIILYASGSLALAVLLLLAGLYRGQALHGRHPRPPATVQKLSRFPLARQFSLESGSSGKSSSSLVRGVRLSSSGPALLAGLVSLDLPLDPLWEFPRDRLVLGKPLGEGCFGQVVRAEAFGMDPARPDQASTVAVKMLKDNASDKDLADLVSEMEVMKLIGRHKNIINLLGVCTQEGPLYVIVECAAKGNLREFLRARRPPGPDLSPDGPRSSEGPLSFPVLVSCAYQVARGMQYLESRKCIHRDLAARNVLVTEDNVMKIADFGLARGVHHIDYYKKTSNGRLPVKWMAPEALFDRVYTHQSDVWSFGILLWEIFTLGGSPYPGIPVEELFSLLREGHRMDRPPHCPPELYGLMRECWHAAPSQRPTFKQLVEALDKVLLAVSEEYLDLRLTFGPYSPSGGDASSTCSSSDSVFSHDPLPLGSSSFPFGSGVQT

COc1cc(OC)cc(N(CCNC(C)C)c2ccc3ncc(-c4cnn(C)c4)nc3n2)c1 [Compound 1]
BAF3-FGFR4 pIC50 [1]: ~7.06 | IC50 [2]: 5.01 nM | IC50 [3]: 251 nM | IC50 [4]: > 10000 nM | IC50 [5]: 5.01 nM | IC50 [6]: 25.1 nM | IC50 ([7]; FGFR 2 pIC50, enzymatic assay): 25.1 nM | BAF3-FGFR1 (MIN IL3) pIC50 [8]: 8.5 | BAF3-FGFR3 (MIN IL3) pIC50 [9]: 8.1 | IC50 [10]: > 10000 nM | BAF3-KDR (MIN IL3) pIC50 [11]: 5.6

COc1cc(OC)c(F)c(N(CCNC(C)C)c2ccc3ncc(-c4cnn(C)c4)nc3n2)c1 [Compound 2]
BAF3-FGFR4 pIC50 [1]: 7.64 | IC50 [2]: 3.16 nM | IC50 [3]: 79.4 nM | IC50 [4]: > 10000 nM | IC50 [5]: 2 nM | IC50 [6]: 7.94 nM | IC50 [7, 12]: 5.01 nM | BAF3-FGFR1 (MIN IL3) pIC50 [8]: 8.3 | BAF3-FGFR3 (MIN IL3) pIC50 [9]: 8.0 | IC50 [10]: > 10000 nM | BAF3-KDR (MIN IL3) pIC50 [11]: 6.2

COc1cc(OC)c(F)c(/N=c2\ccc3ncc(-c4cnn(C)c4)nc3n2CCNC(C)C)c1F [Compound 6]
IC50 [2]: 3.16 nM | IC50 [3]: 50.1 nM | IC50 [4, 13]: > 10000 nM | IC50 [5]: 1 nM | IC50 [6]: 5.01 nM | IC50 [7, 12]: 5.01 nM | BAF3-FGFR1 (MIN IL3) pIC50 [8]: 8.0 | BAF3-FGFR3 (MIN IL3) pIC50 [9]: 7.6 | IC50 [10, 13]: > 10000 nM | BAF3-KDR (MIN IL3) pIC50 [11]: 5.7

COc1cc(OC)cc(N(CC(O)C(F)(F)F)c2ccc3ncc(-c4cnn(C)c4)nc3n2)c1 (centres unmarked) [Compound 8]
BAF3-FGFR4 pIC50 [1]: 6.66 | IC50 [2]: 2 nM | IC50 [3]: 126 nM | IC50 [4, 13]: > 10000 nM | IC50 [5]: 1.26 nM | IC50 [6]: 3.16 nM | IC50 [7, 12]: 6.31 nM | BAF3-FGFR1 (MIN IL3) pIC50 [8]: 7.6 | BAF3-FGFR3 (MIN IL3) pIC50 [9]: 7.6 | IC50 [10, 13]: > 10000 nM | BAF3-KDR (MIN IL3) pIC50 [11]: 5.3

COc1cc(OC)c(F)c(N(Cc2ncccn2)c2ccc3ncc(-c4cnn(C)c4)nc3n2)c1F [Compound 11]
BAF3-FGFR4 pIC50 [1]: ~7.02 | IC50 [2]: 7.08 nM | IC50 [3]: 398 nM | IC50 [4, 13]: > 10000 nM | IC50 [5]: 50.1 nM | IC50 [6]: 20 nM | IC50 [7, 12]: 50.1 nM | BAF3-FGFR1 (MIN IL3) pIC50 [8]: 7.4 | IC50 [10, 13]: > 10000 nM | BAF3-KDR (MIN IL3) pIC50 [11]: 6.3

COc1cc(OC)cc(N(Cc2ncccn2)c2ccc3ncc(-c4cnn(C)c4)nc3n2)c1 [Compound 12]
BAF3-FGFR4 pIC50 [1]: 6.26 | IC50 [2]: 2.51 nM | IC50 [3]: 39.8 nM | IC50 [4, 13]: > 10000 nM | IC50 [5]: 1.58 nM | IC50 [6]: 12.6 nM | IC50 [7, 12]: 3.98 nM | BAF3-FGFR1 (MIN IL3) pIC50 [8]: 7.3 | BAF3-FGFR3 (MIN IL3) pIC50 [9]: 7.1 | IC50 [10, 13]: > 10000 nM | BAF3-KDR (MIN IL3) pIC50 [11]: 5.5

COc1cc(OC)cc(N(CCCO)c2ccc3ncc(-c4cnn(C)c4)nc3n2)c1 [Compound 18]
BAF3-FGFR4 pIC50 [1]: ~6.64 | IC50 [2]: 1 nM | IC50 [3]: 50.1 nM | IC50 [4, 13]: > 10000 nM | IC50 [5]: 2 nM | IC50 [6]: 3.16 nM | IC50 [7, 12]: 3.98 nM | BAF3-FGFR1 (MIN IL3) pIC50 [8]: 7.4 | BAF3-FGFR3 (MIN IL3) pIC50 [9]: 7.3 | IC50 [10, 13]: > 10000 nM | BAF3-KDR (MIN IL3) pIC50 [11]: 5.5

COc1cc(/N=c2\ccc3ncc(-c4cnn(C)c4)nc3n2CCCO)cc(OC)c1 [Compound 19]
IC50 [2]: 0.316 nM | IC50 [3]: 5.01 nM | IC50 [4, 13]: > 10000 nM | IC50 [5]: 0.398 nM | IC50 [6]: 0.398 nM | IC50 [7, 12]: 1.26 nM | BAF3-FGFR1 (MIN IL3) pIC50 [8]: 8.0 | BAF3-FGFR3 (MIN IL3) pIC50 [9]: 8.0 | IC50 [10, 13]: > 10000 nM | BAF3-KDR (MIN IL3) pIC50 [11]: 6.4

COc1cc(OC)cc(N(CCO)c2ccc3ncc(-c4cnn(C)c4)nc3n2)c1 [Compound 21]
BAF3-FGFR4 pIC50 [1]: 6.69 | IC50 [2]: 0.794 nM | IC50 [3]: 63.1 nM | IC50 [4, 13]: > 10000 nM | IC50 [5]: 2 nM | IC50 [6]: 5.01 nM | IC50 [7, 12]: 3.98 nM | BAF3-FGFR1 (MIN IL3) pIC50 [8]: 7.3 | BAF3-FGFR3 (MIN IL3) pIC50 [9]: 7.3 | IC50 [10, 13]: > 10000 nM | BAF3-KDR (MIN IL3) pIC50 [11]: 5.6

COc1cc(OC)c(F)c(N(Cc2ncc[nH]2)c2ccc3ncc(-c4cnn(C)c4)nc3n2)c1F [Compound 25]
BAF3-FGFR4 pIC50 [1]: ~8.23 | IC50 [2]: 2.51 nM | IC50 [3]: 79.4 nM | IC50 [4, 13]: 6310 nM | IC50 [5]: 7.94 nM | IC50 [6]: 3.55 nM | IC50 [7, 12]: 14.1 nM | BAF3-FGFR1 (MIN IL3) pIC50 [8]: 8.8 | BAF3-FGFR3 (MIN IL3) pIC50 [9]: 8.5 | IC50 [10, 13]: > 10000 nM | BAF3-KDR (MIN IL3) pIC50 [11]: 6.7
